Measured values as given in patent EP0153845A2, “CRF analogs” (THE SALK INSTITUTE FOR BIOLOGICAL STUDIES, priority 1984, dated 1985).
Square brackets hold non-standard residues; d marks the D form. Peptide text beside a SMILES is read from it. Nle = CCCC[C@H](N)C(=O)O

Columns and labels:
[1] = target: T1, cultured rat pituitary cells (Rattus norvegicus, UniProt P35353); assay: Stimulation of ACTH and β-endorphin secretion by cultured rat pituitary cells (general procedure of Example III); format: cell-based; details: general procedure of Example III
T1 sequence (P35353 24-415): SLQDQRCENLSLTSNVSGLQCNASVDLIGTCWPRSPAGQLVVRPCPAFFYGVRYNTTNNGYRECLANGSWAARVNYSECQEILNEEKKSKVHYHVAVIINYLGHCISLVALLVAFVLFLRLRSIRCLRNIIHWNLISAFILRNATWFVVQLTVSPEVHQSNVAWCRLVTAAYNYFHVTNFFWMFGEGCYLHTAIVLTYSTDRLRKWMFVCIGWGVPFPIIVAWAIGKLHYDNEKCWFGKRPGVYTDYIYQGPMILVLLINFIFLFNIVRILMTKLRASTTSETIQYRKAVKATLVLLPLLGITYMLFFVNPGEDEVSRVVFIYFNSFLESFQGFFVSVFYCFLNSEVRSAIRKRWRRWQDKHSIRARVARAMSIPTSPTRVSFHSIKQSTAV
Experimental: The synthetic peptide AHC and oCRF were examined for their effects on the secretion of ACTH and B-endorphin in vitro and was also in vivo. The potency of synthetic oCRF to stimulate the secretion of ACTH and β-endorphin by cultured rat pituitary cells was measured using the procedure as generally set forth in Endocrinology, 91, 562 (1972). […] In.vivo testing is carried out using the general procedure set forth in C. Rivier et al., Science, 218, 377 (1982).

[2] = Lowering of blood pressure, in vivo testing by the general procedure of Example III

| Compound | secretion of ACTH and β-END-LI [1] | lowering of blood pressure [2] |
| --- | --- | --- |
| CC[C@H](C)[C@H](NC(=O)[C@H](CC(=O)O)NC(=O)[C@H](CC(C)C)NC(=O)[C@H](CC(C)C)NC(=O)[C@H](CCCCN)NC(=O)[C@H](CCCNC(=N)N)NC(=O)[C@H](CC(N)=O)NC(=O)[C@H](CO)NC(=O)[C@H](Cc1c[nH]cn1)NC(=O)[C@H](C)NC(=O)[C@H](CCC(N)=O)NC(=O)[C@H](CCC(N)=O)NC(=O)[C@H](C)NC(=O)[C@H](CC(C)C)NC(=O)[C@H](CCC(N)=O)NC(=O)[C@H](CC(=O)O)NC(=O)[C@H](C)NC(=O)[C@H](CCCCN)NC(=O)[C@H](CC(=O)O)NC(=O)[C@H](CCSC)NC(=O)[C@H](CCC(=O)O)NC(=O)[C@H](CC(C)C)NC(=O)[C@@H](NC(=O)[C@H](CCC(=O)O)NC(=O)[C@H](CCCNC(=N)N)NC(=O)[C@H](CC(C)C)NC(=O)[C@H](CC(C)C)NC(=O)[C@H](Cc1c[nH]cn1)NC(=O)[C@H](Cc1ccccc1)NC(=O)[C@@H](NC(=O)[C@H](CC(C)C)NC(=O)[C@H](CC(=O)O)NC(=O)[C@H](CC(C)C)NC(=O)[C@H](CO)NC(=O)[C@@H](NC(=O)[C@H]1CCCN1)[C@@H](C)CC)[C@@H](C)O)C(C)C)C(=O)N[C@@H](C)C(N)=O [[D-Pro^4,Asp^22]-oCRF(4-41)] (H-[dP]ISLDLTFHLLREVLEMDKADQLAQQAHSNRKLLDIA-NH2) | stimulates | very significant lowering of blood pressure |
| CCCC[C@H](NC(=O)[C@H](CCC(=O)O)NC(=O)[C@H](CC(C)C)NC(=O)[C@H](CCCC)NC(=O)[C@H](CCC(=O)O)NC(=O)[C@H](CCCNC(=N)N)NC(=O)[C@H](CC(C)C)NC(=O)[C@H](CC(C)C)NC(=O)[C@H](Cc1c[nH]cn1)NC(=O)[C@H](Cc1ccccc1)NC(=O)[C@@H](NC(=O)[C@H](CC(C)C)NC(=O)[C@H](CC(=O)O)NC(=O)[C@H](CC(C)C)NC(=O)[C@H](CO)NC(=O)[C@@H](NC(=O)[C@@H]1CCCN1C(=O)[C@@H]1CCCN1C(=O)[C@H](N)Cc1ccc(O)cc1)[C@@H](C)CC)[C@@H](C)O)C(=O)N[C@@H](C)C(=O)N[C@@H](CCCCN)C(=O)N[C@@H](C)C(=O)N[C@@H](CCC(=O)O)C(=O)N[C@@H](CCC(N)=O)C(=O)N[C@@H](CCC(=O)O)C(=O)N[C@@H](C)C(=O)N[C@@H](CCC(=O)O)C(=O)N[C@@H](CCC(N)=O)C(=O)N[C@@H](C)C(=O)N[C@@H](C)C(=O)N[C@@H](CC(C)C)C(=O)N[C@@H](CC(N)=O)C(=O)N[C@@H](CCCNC(=N)N)C(=O)N[C@@H](CC(C)C)C(=O)N[C@@H](CC(C)C)C(=O)N[C@@H](CC(C)C)C(=O)N[C@@H](CCC(=O)O)C(=O)N[C@@H](CCC(=O)O)C(=O)N[C@@H](C)C(N)=O [[D-Tyr^3, Nle^18,21)-AHC(3-41)] (H-[dY]PPISLDLTFHLLRE[Nle]LE[Nle]AKAEQEAEQAALNRLLLEEA-NH2) | stimulates | very significant lowering of blood pressure |
| CC[C@H](C)[C@H](NC(=O)[C@H](CCC(=O)O)NC(=O)[C@H](CC(=O)O)NC(=O)[C@H](CCSC)NC(=O)[C@H](CC(C)C)NC(=O)[C@H](CCCCNC(=N)N)NC(=O)[C@H](CCCNC(=N)N)NC(=O)[C@H](CC(N)=O)NC(=O)[C@H](CC(N)=O)NC(=O)[C@H](C)NC(=O)[C@H](C)NC(=O)[C@H](CCC(N)=O)NC(=O)[C@H](CCC(N)=O)NC(=O)[C@H](CCCCN)NC(=O)[C@H](CC(C)C)NC(=O)[C@H](CCCCN)NC(=O)[C@H](CCC(=O)O)NC(=O)[C@H](CCC(N)=O)NC(=O)[C@H](CCCCN)NC(=O)[C@H](CCC(=O)O)NC(=O)[C@@H](NC(=O)[C@H](CCC(=O)O)NC(=O)[C@@H](NC(=O)[C@H](CCSC)NC(=O)[C@H](CCCCN)NC(=O)[C@H](CCCNC(=N)N)NC(=O)[C@H](CC(C)C)NC(=O)[C@H](CC(C)C)NC(=O)[C@H](CCC(=O)O)NC(=O)[C@H](CC(C)C)NC(=O)[C@H](CO)NC(=O)[C@H](CC(C)C)NC(=O)[C@H](CC(=O)O)NC(=O)[C@@H](NC(=O)[C@H](CO)NC(=O)[C@@H](NC(=O)[C@@H]1CCCN1C(=O)[C@@H]1CCCN1C(=O)CNC(=O)[C@@H]1CCC(=O)N1)[C@@H](C)CC)[C@@H](C)CC)[C@@H](C)CC)[C@@H](C)CC)C(N)=O [[Leu^26, Har^35, Met, Glu^39]-sauvagine] | stimulates | very significant lowering of blood pressure |
| CCCC[C@H](NC(=O)[C@H](CCC(=O)O)NC(=O)[C@H](CC(C)C)NC(=O)[C@H](CCCC)NC(=O)[C@H](CCC(=O)O)NC(=O)[C@H](CCCNC(=N)N)NC(=O)[C@H](CC(C)C)NC(=O)[C@H](CC(C)C)NC(=O)[C@H](Cc1c[nH]cn1)NC(=O)[C@H](Cc1ccccc1)NC(=O)[C@@H](NC(=O)[C@H](CC(C)C)NC(=O)[C@H](CC(=O)O)NC(=O)[C@H](CC(C)C)NC(=O)[C@H](CO)NC(=O)[C@@H](NC(=O)[C@@H]1CCCN1)[C@@H](C)CC)[C@@H](C)O)C(=O)N[C@@H](C)C(=O)N[C@@H](CCCNC(=N)N)C(=O)N[C@@H](C)C(=O)N[C@@H](CCC(=O)O)C(=O)N[C@@H](CCC(N)=O)C(=O)N[C@@H](CCC(=O)O)C(=O)N[C@@H](C)C(=O)N[C@@H](CCC(=O)O)C(=O)N[C@@H](CCC(N)=O)C(=O)N[C@@H](C)C(=O)N[C@@H](C)C(=O)N[C@@H](CC(C)C)C(=O)N[C@@H](CC(N)=O)C(=O)N[C@@H](CCCNC(=N)N)C(=O)N[C@@H](CC(C)C)C(=O)N[C@@H](CC(C)C)C(=O)N[C@@H](CC(C)C)C(=O)N[C@@H](CCC(=O)O)C(=O)N[C@@H](CCC(=O)O)C(=O)N[C@@H](C)C(N)=O [[Nle^18,21, Arg^23]-AHC(5-41)] (H-PISLDLTFHLLRE[Nle]LE[Nle]ARAEQEAEQAALNRLLLEEA-NH2) | stimulates | very significant lowering of blood pressure |
| CCCC[C@H](NC(=O)[C@H](CCC(=O)O)NC(=O)[C@H](CC(C)C)NC(=O)[C@H](CCCC)NC(=O)[C@H](CCC(=O)O)NC(=O)[C@H](CCCNC(=N)N)NC(=O)[C@H](CC(C)C)NC(=O)[C@H](CC(C)C)NC(=O)[C@H](Cc1c[nH]cn1)NC(=O)[C@H](Cc1ccccc1)NC(=O)[C@@H](NC(=O)[C@H](CC(C)C)NC(=O)[C@H](CC(=O)O)NC(=O)[C@H](CC(C)C)NC(=O)[C@H](CO)NC(=O)[C@@H](N)[C@@H](C)CC)[C@@H](C)O)C(=O)N[C@@H](C)C(=O)N[C@@H](CCCCN)C(=O)N[C@@H](C)C(=O)N[C@@H](CCC(=O)O)C(=O)N[C@@H](CCC(N)=O)C(=O)N[C@@H](CCC(=O)O)C(=O)N[C@@H](C)C(=O)N[C@@H](CCC(=O)O)C(=O)N[C@@H](CCC(N)=O)C(=O)N[C@@H](C)C(=O)N[C@@H](C)C(=O)N[C@@H](CC(C)C)C(=O)N[C@@H](CC(N)=O)C(=O)N[C@@H](CCCNC(=N)N)C(=O)N[C@@H](CCCNC(=N)N)C(=O)N[C@@H](CC(C)C)C(=O)N[C@@H](CC(C)C)C(=O)N[C@@H](CCC(=O)O)C(=O)N[C@@H](CCC(=O)O)C(=O)N[C@@H](C)C(N)=O [[Nle^18,21, Arg^36]-AHC(6-41)] (H-ISLDLTFHLLRE[Nle]LE[Nle]AKAEQEAEQAALNRRLLEEA-NH2) | stimulates | very significant lowering of blood pressure |
| CCCC[C@H](NC(=O)[C@H](CCC(=O)O)NC(=O)[C@H](CCCNC(=N)N)NC(=O)[C@H](CC(C)C)NC(=O)[C@H](CC(C)C)NC(=O)[C@H](Cc1c[nH]cn1)NC(=O)[C@H](Cc1ccccc1)NC(=O)[C@@H](NC(=O)[C@H](CC(C)C)NC(=O)[C@H](CC(=O)O)NC(=O)[C@H](CC(C)C)NC(=O)[C@H](CO)NC(=O)[C@@H](NC(=O)[C@@H]1CCCN1C(=O)[C@@H]1CCCN1C(=O)[C@H](CCC(=O)O)NC(=O)[C@@H](N)CCC(N)=O)[C@@H](C)CC)[C@@H](C)O)C(=O)N[C@@H](CC(C)C)C(=O)N[C@@H](CCC(=O)O)C(=O)N[C@@H](CCSC)C(=O)N[C@H](C(=O)N[C@@H](CCCCN)C(=O)N[C@@H](C)C(=O)N[C@@H](CC(=O)O)C(=O)N[C@@H](CCC(N)=O)C(=O)N[C@@H](CC(C)C)C(=O)N[C@@H](C)C(=O)N[C@@H](CCC(N)=O)C(=O)N[C@@H](CCC(N)=O)C(=O)N[C@@H](C)C(=O)N[C@@H](Cc1c[nH]cn1)C(=O)N[C@@H](CO)C(=O)N[C@@H](CC(N)=O)C(=O)N[C@@H](CCCNC(=N)N)C(=O)N[C@@H](CCCCN)C(=O)N[C@@H](Cc1ccc(O)cc1)C(=O)N[C@@H](CC(C)C)C(=O)N[C@@H](CC(=O)O)C(=O)N[C@@H](CCC(=O)O)C(=O)N[C@@H](C)C(N)=O)[C@@H](C)O [[Nle^18,Tyr^37,Glu^40]-oCRF(2-41)] (H-QEPPISLDLTFHLLRE[Nle]LEMTKADQLAQQAHSNRKYLDEA-NH2) | stimulates | very significant lowering of blood pressure |
| Ac-GEEPPISLDLTFHLLREVLEMARAEQLAQQAHLNRKLMEEI-NH2 [[Acetyl-Gly^1, Leu^33, Glu^40]-rCRF] | stimulates | very significant lowering of blood pressure |
| Ac-PPISLDLTFHLLREVLEMARAEQLAEQAHSNRKYMEEI-NH2 | stimulates | very significant lowering of blood pressure to a greater extent than rCRF |
| H-PPISIDLSLELLRKMIEIAKQEKEKEQAANNRLLMDTI-NH2 | stimulates | very significant lowering of blood pressure |
| H-PPISLDLTFHLLREVLEMARAEQLAQQAHLNRKLMEEI-NH2 | stimulates | very significant lowering of blood pressure |
